The structures appear in SMILES notation.

Data on six compounds can be found in patent US9439904B2, “Pyrimidine compounds and their use as gamma secretase modulators” (Acturum Life Science AB, priority 2013, dated 2016).

The test system of experiment [1] is Aβ42. Put plainly: PCN assay: Aβ42 secreted by primary cortical neuronal cells, ELISA. In kind it is cell-based. Conditions: primary cortical neuronal cells from 16-day mouse embryos; 16-20 hours incubation with test compound; read-out: pIC50 Aβ42 PCN assay (converted). On the procedure: Compounds were diluted in 100% DMSO and stored at […] prior to use. Primary cortical neuronal cells (PCN) were isolated from 16-day mouse embryos and cultured in Ham's F12 media containing 10% Foetal bovine serum, 10 mM Hepes, 2 mM L-glutamine and 100 U/mL Penicillin-Streptomycin. 150000-250000 cells/well, in 200 μL cell media were seeded onto 96-well poly-D-Lysine coated plates. After incubation at 37° C., 5% CO2 for five days, the media was exchanged for fresh medium containing test compound diluted ×100, before further incubation for 16-20 hours at 37° C. and 5% CO2. After incubation with test compound the amount of […] secreted to cell medium was analyzed using the solid phase sandwich Enzyme-Linked-Immuno-Sorbent Assay (ELISA)-kit from Invitrogen for detection of mouse βAmyloid 1-42. Potential cytotoxic effects of the compounds were assayed by measuring the ATP content (Via Light) from cell lysate.

Experiment [2] deals with Aβ42. Put plainly: HEK assay: Aβ42 secreted to cell medium, Meso Scale Discovery electrochemiluminescence. In kind it is cell-based. Conditions: Homo sapiens, HEK293; HEK cell line stably expressing APPswe; 4-6 hours incubation with test compound; read-out: pIC50 Aβ42 HEK assay (converted). Here is the method:
Compounds were diluted in 100% DMSO and stored at […] prior to use. Human Embryonic Kidney (HEK) cell line stably expressing APP with the Swedish mutation (APPswe) was cultured using Dulbecco's Modified Eagles medium (DMEM) supplied with […] glucose, Na-pyruvate and GlutaMAX, 10% Foetal bovine serum, 100 U/mL penicillin-streptomycin (PEST), 1× non-essential amino acids (NEAA), […] Hepes, 100 μg/mL Zeocine. Cells at about 80% confluence were washed with PBS, detached from culture flasks using 1× Trypsin/EDTA diluted in PBS, re-suspended in cell media and plated in 384-well poly-d-lysine coated cell culture plates at about 10000-15000 cells/well, in 25 μL cell media. Optionally, cryo-preserved cells (frozen and stored at −140° C. in 90% cell media and 10% DMSO) were thawed, washed and plated as above. Next the cells were incubated for 15-24 h at 37° C. and 5% CO2, after which cell medium was changed. Fresh medium containing test compound diluted ×200 from prepared compound plate was added to the cells before further incubation for 4-6 hours at 37° C. and 5% CO2. After incubation with test compound the amount of Aβ peptides, including Aβ42, Aβ40, Aβ39, Aβ38 and Aβ37, secreted to cell medium was analyzed using the electrochemiluminescence assay technology from Meso Scale Discovery Technology, in combination with specific antibodies raised against the different Aβ peptides. Potential cytotoxic effects of the compounds were assayed by measuring the ATP content (ViaLight) from cell lysate.

On to `COc1cc(Nc2nc(COCC(F)(F)F)cc(N(C)Cc3ccccc3)n2)ccc1-n1cnc(C)c1` [Example 25, N^4-Benzyl-N^2-(3-methoxy-4-(4-methyl-1H-imidazol-1-yl)phenyl)-N^4-methyl-6-((2,2,2-trifluoroethoxy)methyl)pyrimidine-2,4-diamine], for which the IC50 in the experiment on Aβ42 [1] is 50.1 nM; in the experiment with Aβ42 [2], 25.1 nM.
For `COc1cc(Nc2nc(COCC(F)(F)F)cc(NC(C)C)n2)ccc1-c1cnnc(C)c1` [Example 23, N^4-Isopropyl-N^2-(3-methoxy-4-(6-methylpyridazin-4-yl)phenyl)-6-((2,2,2-trifluoroethoxy)-methyl)pyrimidine-2,4-diamine] the same measures were 79.4 nM and 79.4 nM.
The matching figures for `COc1cc(Nc2nc(CNCc3ccccc3)cc(COCC(F)(F)F)n2)ccc1-c1cnnc(C)c1` [Example 39, 4-((Benzylamino)methyl)-N-(3-methoxy-4-(6-methylpyridazin-4-yl)phenyl)-6-((2,2,2-trifluoroethoxy)methyl)pyrimidin-2-amine]: 200 nM and 126 nM.
The matching figures for `COc1cc(Nc2nc(COCC(F)(F)F)cc(C(C)(C)O)n2)ccc1-c1cnnc(C)c1` [Example 47, 2-(2-(3-Methoxy-4-(6-methylpyridazin-4-yl)phenylamino)-6-((2,2,2-trifluoroethoxy)-methyl)pyrimidin-4-yl)propan-2-ol]: 100 nM and 50.1 nM.
In the case of `COc1cc(Nc2nc(COCC(F)(F)F)cc(C(O)C3CC3)n2)ccc1-n1cnc(C)c1` (stereo not drawn) [Example 28, Cyclopropyl(2-(3-methoxy-4-(4-methyl-1H-imidazol-1-yl)phenylamino)-6-((2,2,2-trifluoroethoxy)methyl)pyrimidin-4-yl)methanol], the IC50 is 100 nM with Aβ42 [1] and 39.8 nM with Aβ42 [2].
The matching figures for `COc1cc(Nc2nc(CO)cc(COCC(F)(F)F)n2)ccc1-n1cnc(C)c1` [Example 10, (2-(3-Methoxy-4-(4-methyl-1H-imidazol-1-yl)phenylamino)-6-((2,2,2-trifluoroethoxy)methyl)pyrimidin-4-yl)methanol]: 31.6 nM and 63.1 nM.
